These are literature values, as cited in article PMC5731934, “Modifying glycyrrhetinic acid liposomes with liver-targeting ligand of galactosylated derivative: preparation and evaluations” (Oncotarget, 2017).

Some results are limits rather than exact numbers.

Details of this data set: method as in PMID 11752037.

Regarding `CC1(C)[C@@H](O)CC[C@]2(C)[C@H]3C(=O)C=C4[C@@H]5C[C@@](C)(C(=O)O)CC[C@]5(C)CC[C@@]4(C)[C@]3(C)CC[C@@H]12` [GA, Glycyrrhetinic acid], the solubility in water is below 10 µg/mL.
